SMILES strings stand for the structures.

Data set [1] in a line: Distribution of a lipophilic compound (tacrolimus) after periadventitial delivery to coronary arteries, LC/MS of tissue. It counts as in vivo, swine. Conditions: for concentration at 48 h: swine, in vivo. Here is the method:
Distribution of a lipophilic compound (tacrolimus): Eight swine underwent angiography. […] The two remaining arteries served as untreated controls. An untreated heart was used as a negative control. At 48 hours arteries were dissected from the musculature and perivascular fat, cut into 5 mm sections and analyzed by Liquid Chromatography/Mass Spectrometry against tacrolimus calibration standards containing homogenized untreated porcine heart tissue.

For data set [2] the following is noted: two injections of 0.5 mL 5% silver nitrate into each iliac artery; hematoxylin-eosin stained sections.
Text: The animal was sacrificed according to approved protocol following the last injection. The arteries were removed and placed in 10% formalin without perfusion. 2 mm segments were embedded in paraffin, sectioned, and hematoxylin-eosin stained.

With `C=CC[C@@H]1/C=C(\C)C[C@H](C)C[C@H](OC)[C@H]2O[C@@](O)(C(=O)C(=O)N3CCCC[C@H]3C(=O)O[C@H](/C(C)=C/[C@@H]3CC[C@@H](O)[C@H](OC)C3)[C@H](C)[C@@H](O)CC1=O)[C@H](C)C[C@@H]2OC` [tacrolimus], the “persistence of drug in the artery” value in data set [1] (48 hours after injection, full length of the artery) is listed as “detectable”. Besides, the “subjects with distribution to the entire coronary tree” value in data set [1] (periadventitial delivery, 48 hours) was 8/8. Further, the concentration at 48 h turned out to be 26 ng/g in data set [1] (mean concentration in the remaining segments), 64 ng/g in data set [1] (mean concentration within 1 cm of known injection sites), 55 ng/g in data set [1] (mean level of tacrolimus in confirmed injected arteries) and 27 ng/g in data set [1] (mean level of tacrolimus in uninjected arteries of treated hearts).

On to `O=[N+]([O-])[O-].[Ag+]` [Silver Nitrate], for which the “staining: site of delivery and diffusion” value in data set [2] was “delivery outside the external elastic lamina of the vessels and diffusion around the circumference”.

For the origin of these results see US20070078620A1, “Methods and kits for delivering pharmaceutical agents into the coronary vascular adventitia” (Mercator MedSystems Inc., priority 2002, published 2007).
